According to patent US20230416205A1, “COMPOUNDS, COMPOSITIONS, AND METHODS” (Denali Therapeutics Inc, priority 2020, published 2023):
Read-outs that look alike come from different tables or passages of the source.

Test system: NLRP3
Assay: IL-1β secretion assay in PMA-differentiated, LPS/nigericin-stimulated THP-1 cells (384-well, ELISA read-out)
Type: cell-based, human
Method: Compounds as provided herein were tested in the following assay. Cell culture medium employed contained RPMI 1640 medium (89%), FBS (10%), Pen/Strep (1%), and 2-mercaptoethanol (0.05 mM). Freezing medium was made up of 90% FBS and 10% DMSO. THP-1 cells were removed from the liquid nitrogen and placed into a 37° C. water bath to thaw, until signs of ice dissipated. The cells were then added to 9 mL of warm cell culture medium and centrifuged for 5 minutes at 1000 rpm. The supernatant was discarded, and the cells were resuspended in new cell culture medium. THP-1 cells were then split and cultured in the cell culture medium, being passaged every 2-3 days with the cell density will be maintained between 5×10^5 and 1.5×10^6 viable cells/mL.
To freeze, cells were resuspended with fresh freezing medium, adjusting the cell density to 5×10^6 cells/mL. The cell suspension was partitioned into 1 mL aliquots per vial, and the vials were transferred to a −80° C. freezer. After one day at −80° C., the cell vials were transferred to liquid nitrogen freezer for storage.
PMA was dissolved in DMSO to make a stock solution at 5 mg/mL and stored in 10 μl aliquots at −20° C. for single use. PMA is added to normal growth medium. LPS was diluted with 1 mL of water solution to provide a 1 mg/mL stock solution and stored in 15 μl aliquots at −20° C. for single use. Nigericin is diluted in ice cold 100% ethanol to 5 mg/mL (6.7 mM) and stored in 75 μL aliquots at −20° C. for single use. Serum-free media contains RPMI 1640 medium (99%), Pen/Strep (1%), and 2-mercaptoethanol (0.05 mM). The two control conditions used to qualify and normalize test compound dose-response curves were as follows: High Control=25 ng/mL LPS, 5 μM Nigericin, 0.5% DMSO, Low Control=25 ng/mL, LPS, 0.5% DMSO.
THP-1 cells were diluted to provide a suspension at a concentration of 1.0×10^6 cells/mL with the total volume of suspension required to enable the desired number of assay plates. The growth media was supplemented with PMA (5 ng/mL final concentration) and the cells were incubated at 37° C. under a humidified atmosphere of 5% CO2 for 40 h.
All media was carefully aspirated from each culture flask. The cells were washed carefully with 1×DPBS. The cells were then briefly digested with trypsin LE for 5 minutes at 23° C., and immediately resuspended in cell growth media. After resuspension, the cells were centrifuged at 1000 rpm for 3 minutes and the supernatant was discarded. The cells were resuspended in DPBS and once again centrifuged at 1000 rpm for 5 minutes. The supernatant was discarded and the cell pellet was resuspended in serum-free media supplemented with LPS (25 ng/mL final concentration) to enable the distribution of 30K THP-1 cells within 45 μL of media into each well of 384-well PDL-coated plates. The 384-well plates were then incubated at 37° C. under a humidified atmosphere of 5% CO2 for 2 h. Following this period, test compounds were dispensed by Tecan across the desired concentration range with all wells normalized to a final 0.5% DMSO concentration. The plates were then incubated at 37° C. under a humidified atmosphere of 5% CO2 for 1 h. Following this period, 5 μL of the […] was added to each of the appropriate wells and plates were centrifuged at 1000 rpm for 30 seconds. The plates were the immediately reintroduced to the incubator at 37° C. under a humidified atmosphere of 5% CO2 for 2 h. After this time, 35 μL/well of supernatant was collected and transferred into v-bottom plate and centrifuged at 1000 rpm for 1 minute. These supernatant aliquots were analyzed using an IL-Iβ detection kit as described below. If needed, the test samples could be snap frozen and stored at −80° C. until analyzed.
To prepare each ELISA plate, capture antibody (mAb Mt175) was diluted with PBS to a final concentration of 2 μg/mL and then 20 μL of this solution was added to each well of the ELISA plate. Each plate was allowed to incubate overnight at 4° C.

[1] = Homo sapiens, THP-1, IL-1β secretion, PMA-differentiated THP-1 cells, LPS then nigericin stimulation, ELISA read at 450 nm, read-out: Activity
[2] = Homo sapiens, THP-1, Table 4, IL-1β secretion, LPS/nigericin-stimulated THP-1 cells, read-out: IC50
[3] = Table 4, IL-1β secretion, LPS/nigericin-stimulated THP-1 cells, read-out: IC50
[4] = IL-1β secretion, PMA-differentiated THP-1 cells, LPS then nigericin stimulation, ELISA read at 450 nm, read-out: Activity

O=C(CN1C[C@@]2(C[C@H]2F)c2cc(Br)ccc2C1=O)Nc1ncc(F)cn1 (mixture of isomers) [Example 80, 2-[(2′r,4r)-6-bromo-2′-fluoro-1-oxospiro[3H-isoquinoline-4,1′-cyclopropane]-2-yl]-N-(5-fluoropyrimidin-2-yl)acetamide]
IC50 [1]: < 10000 nM | IC50 [2]: 1060 nM

O=C(CN1C[C@@]2(C[C@@H]2F)c2cc(Br)cc(F)c2C1=O)Nc1ncc(F)cn1 (mixture of isomers) [Example 285, 2-[(2′s,4r)-6-bromo-2′,8-difluoro-1-oxospiro[3H-isoquinoline-4,1′-cyclopropane]-2-yl]-N-(5-fluoropyrimidin-2-yl)acetamide]
IC50 [1]: < 10000 nM | IC50 [2]: 165 nM

O=C(CN1C[C@@]2(C[C@@H]2F)c2cc(Br)ccc2C1=O)Nc1ncc(F)cn1 (single isomer, unassigned) [Example 78]
IC50 [1]: < 10000 nM | IC50 [2]: 208 nM

O=C(CN1C[C@@]2(C[C@@H]2F)c2c(ccc(Br)c2F)C1=O)Nc1ncc(F)cn1 (single isomer, unassigned) [Example 220, 2-[(2′s,4r)-6-bromo-2′,5-difluoro-1-oxospiro[3H-isoquinoline-4,1′-cyclopropane]-2-yl]-N-(5-fluoropyrimidin-2-yl)acetamide]
IC50 [1]: < 10000 nM | IC50 [2]: 20 nM

N#Cc1cnc(NC(=O)CN2C[C@@]3(C[C@@H]3F)c3c(ccc(Br)c3F)C2=O)nc1 (single isomer, unassigned) [Example 221, 2-[(2′s,4r)-6-bromo-2′,5-difluoro-1-oxospiro[3H-isoquinoline-4,1′-cyclopropane]-2-yl]-N-(5-cyanopyrimidin-2-yl)acetamide]
IC50 [1]: < 10000 nM | IC50 [2]: 14 nM

O=C(CN1C[C@@]2(C[C@@H]2F)c2c(ccc(Br)c2F)C1=O)Nc1ncc(Cl)cn1 (single isomer, unassigned) [Example 222, 2-[(2′s,4r)-6-bromo-2′,5-difluoro-1-oxospiro[3H-isoquinoline-4,1′-cyclopropane]-2-yl]-N-(5-chloropyrimidin-2-yl)acetamide]
IC50 [1]: < 10000 nM | IC50 [2]: 11 nM

O=C(CN1C[C@@]2(C[C@@H]2F)c2c(ccc(Cl)c2F)C1=O)Nc1ncc(F)cn1 (single isomer, unassigned) [Example 223, 2-[(2′s,4r)-6-chloro-2′,5-difluoro-1-oxospiro[3H-isoquinoline-4,1′-cyclopropane]-2-yl]-N-(5-fluoropyrimidin-2-yl)acetamide]
IC50 [1]: < 10000 nM | IC50 [2]: 55 nM

O=C(CN1C[C@@]2(C[C@@H]2F)c2c(ccc(Br)c2F)C1=O)Nc1ncccn1 (single isomer, unassigned) [Example 224, 2-[(2′s,4r)-6-bromo-2′,5-difluoro-1-oxospiro[3H-isoquinoline-4,1′-cyclopropane]-2-yl]-N-pyrimidin-2-ylacetamide]
IC50 [1]: < 10000 nM | IC50 [2]: 49 nM

Cc1cnc(NC(=O)CN2C[C@@]3(C[C@@H]3F)c3c(ccc(Br)c3F)C2=O)nc1 (single isomer, unassigned) [Example 225, 2-[(2′s,4r)-6-bromo-2′,5-difluoro-1-oxospiro[3H-isoquinoline-4,1′-cyclopropane]-2-yl]-N-(5-methylpyrimidin-2-yl)acetamide]
IC50 [1]: < 10000 nM | IC50 [2]: 19 nM

O=C(CN1C[C@@]2(C[C@@H]2F)c2c(ccc(Br)c2F)C1=O)Nc1ncc(C(F)(F)F)cn1 (single isomer, unassigned) [Example 226, 2-[(2′s,4r)-6-bromo-2′,5-difluoro-1-oxospiro[3H-isoquinoline-4,1′-cyclopropane]-2-yl]-N-[5-(trifluoromethyl)pyrimidin-2-yl]acetamide]
IC50 [1]: < 10000 nM | IC50 [2]: 31 nM

O=C(CN1C[C@]2(C[C@H]2F)c2c(ccc(Br)c2F)C1=O)Nc1ncccn1 (single isomer, unassigned) [Example 227, 2-[(2′s,4r)-6-bromo-2′,5-difluoro-1-oxospiro[3H-isoquinoline-4,1′-cyclopropane]-2-yl]-N-pyrimidin-2-ylacetamide]
IC50 [1]: < 10000 nM | IC50 [2]: 127 nM

O=C(CN1C[C@@]2(C[C@@H]2F)c2c(ccc(C3CC3)c2F)C1=O)Nc1ncc(F)cn1 (single isomer, unassigned) [Example 228, 2-[(2′s,4r)-6-cyclopropyl-2′,5-difluoro-1-oxospiro[3H-isoquinoline-4,1′-cyclopropane]-2-yl]-N-(5-fluoropyrimidin-2-yl)acetamide]
IC50 [1]: < 10000 nM | IC50 [2]: 21 nM

O=C(CN1C[C@@]2(C[C@@H]2F)c2c(ccc(C3CC3)c2F)C1=O)Nc1ncc(Cl)cn1 (single isomer, unassigned) [Example 229, 2-[(2′s,4r)-6-cyclopropyl-2′,5-difluoro-1-oxospiro[3H-isoquinoline-4,1′-cyclopropane]-2-yl]-N-(5-chloropyrimidin-2-yl)acetamide]
IC50 [1]: < 10000 nM | IC50 [2]: 32 nM

O=C(CN1C[C@@]2(C[C@@H]2F)c2cc(C(F)(F)F)ccc2C1=O)Nc1ncc(F)cn1 (single isomer, unassigned) [Example 234, 2-[(2′s,4r)-2′-fluoro-1-oxo-6-(trifluoromethyl)spiro[3H-isoquinoline-4,1′-cyclopropane]-2-yl]-N-(5-fluoropyrimidin-2-yl)acetamide]
IC50 [1]: < 10000 nM | IC50 [3]: 78 nM

O=C(CN1C[C@@]2(C[C@@H]2F)c2cc(C(F)(F)F)ccc2C1=O)Nc1ncc(F)cn1 (single isomer, unassigned) [Example 235, 2-[(2′s,4r)-2′-fluoro-1-oxo-6-(trifluoromethyl)spiro[3H-isoquinoline-4,1′-cyclopropane]-2-yl]-N-(5-fluoropyrimidin-2-yl)acetamide]
IC50 [4]: < 10000 nM | IC50 [3]: 850 nM

N#Cc1cnc(NC(=O)CN2C[C@@]3(C[C@@H]3F)c3cc(C(F)(F)F)ccc3C2=O)nc1 (single isomer, unassigned) [Example 236, N-(5-cyanopyrimidin-2-yl)-2-[(2′s,4r)-2′-fluoro-1-oxo-6-(trifluoromethyl)spiro[3H-isoquinoline-4,1′-cyclopropane]-2-yl]acetamide]
IC50 [1]: < 10000 nM | IC50 [3]: 1120 nM

N#Cc1cnc(NC(=O)CN2C[C@@]3(C[C@@H]3F)c3cc(C(F)(F)F)ccc3C2=O)nc1 (single isomer, unassigned) [Example 237, N-(5-cyanopyrimidin-2-yl)-2-[(2′s,4r)-2′-fluoro-1-oxo-6-(trifluoromethyl)spiro[3H-isoquinoline-4,1′-cyclopropane]-2-yl]acetamide]
IC50 [4]: < 10000 nM | IC50 [3]: 61 nM

O=C(CN1C[C@@]2(C[C@@H]2F)c2cc(C(F)(F)F)ccc2C1=O)Nc1ncc(Cl)cn1 (single isomer, unassigned) [Example 238, N-(5-chloropyrimidin-2-yl)-2-[(2′s,4r)-2′-fluoro-1-oxo-6-(trifluoromethyl)spiro[3H-isoquinoline-4,1′-cyclopropane]-2-yl]acetamide]
IC50 [1]: < 10000 nM | IC50 [3]: 414 nM

O=C(CN1C[C@@]2(C[C@@H]2F)c2cc(C(F)(F)F)ccc2C1=O)Nc1ncc(Cl)cn1 (single isomer, unassigned) [Example 239, N-(5-chloropyrimidin-2-yl)-2-[(2′s,4r)-2′-fluoro-1-oxo-6-(trifluoromethyl)spiro[3H-isoquinoline-4,1′-cyclopropane]-2-yl]acetamide]
IC50 [4]: < 10000 nM | IC50 [3]: 37 nM
